“And” between values parts separate entries of the source, which are not always exact repeats. Equal values may be shown once. Where only a bound is given, the exact number is not on record here.

The target of series [1] is α1-adrenoceptors (α1-ARs), rat cerebral cortex. Briefly: Radioligand binding assay with [3H]-prazosin, affinity for α1-ARs. The note with it: three independent experiments in duplicates, read-out: α1-adrenoceptor affinity Ki. The procedure:
In the first step, all synthesized compounds (1–15) were tested in vitro for their affinity for α1-ARs on rat cerebral cortex by the radioligand binding assay using [^3H]-prazosin as a specific radioligand.
The affinity for α1-ARs was determined by radioligand binding assay on rat cerebral cortex using [3H]-prazosin as a specific radioligand. The brains were homogenized in 20 volumes of an ice-cold 50 mM Tris-HCl buffer (pH 7.6) and were centrifuged (MPW Med. Instruments, Warsaw, Poland) at 20,000× g for 20 min (0–4 °C). The cell pellet was resuspended in the Tris-HCl buffer and centrifuged again. Radioligand-binding assay was performed in plates (MultiScreen/Millipore, Burlington, MA, USA). The final incubation mixture (final volume 300 μL) consisted of 240 μL of the membrane suspension, 30 μL of [3H]-Prazosin (0.2 nM) solution, and 30 μL of the buffer containing seven to eight concentrations (10^−11 to 10^−4 M) of the tested compounds. For measuring the unspecific binding, phentolamine, 10 μM (in the case of [3H]-Prazosin) was applied. The incubation was terminated by rapid filtration over glass fiber filters (Whatman GF/C, Sigma-Aldrich) using a vacuum manifold (Millipore). The filters were then washed twice with the assay buffer and placed in scintillation vials with a liquid-scintillation cocktail. Radioactivity was measured in a WALLAC 1409 DSA liquid-scintillation counter (BioSurplus, San Diego, CA, USA).
(§1) All statistics were performed using GraphPad Prism, Version 6.0 (GraphPad Software, San Diego, CA, USA). In the radioligand binding study, data were analyzed by a one-site curve-fitting equation, and inhibition constants (Ki) values were calculated via the Cheng-Prusoff equation [63]. In functional studies, data were analyzed using a sigmoidal dose-response (variable slope) equation. Arterial blood pressure data were analyzed using a two-way ANOVA with Sidak’s post-hoc test for multiple comparisons. A p < 0.05 was considered statistically significant.

The target in series [2] is T1, human adrenergic receptor α1A (Homo sapiens, UniProt P35348).
T1 sequence (P35348 1-466): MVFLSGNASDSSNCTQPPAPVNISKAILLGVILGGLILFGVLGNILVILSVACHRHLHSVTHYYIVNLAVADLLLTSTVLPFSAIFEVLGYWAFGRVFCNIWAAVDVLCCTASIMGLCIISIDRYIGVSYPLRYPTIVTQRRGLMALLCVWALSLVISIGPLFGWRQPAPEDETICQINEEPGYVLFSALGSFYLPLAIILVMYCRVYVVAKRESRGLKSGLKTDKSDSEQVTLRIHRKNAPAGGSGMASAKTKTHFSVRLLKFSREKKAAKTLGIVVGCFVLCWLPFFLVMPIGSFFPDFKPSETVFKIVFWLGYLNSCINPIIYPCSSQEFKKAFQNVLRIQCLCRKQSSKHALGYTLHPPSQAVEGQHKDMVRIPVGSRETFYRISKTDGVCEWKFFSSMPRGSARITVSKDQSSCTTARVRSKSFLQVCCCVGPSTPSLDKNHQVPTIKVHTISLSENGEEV
The experiment in a line: Intrinsic activity, aequorin luminescence functional assay at α1A-AR. Format: cell-based. The note with it: for α1A-AR Profile: agonist/antagonist profile; for IC50: cells expressing aequorin and human α1A, against phenylephrine, means of three independent experiments in duplicates; for Selectivity Ratio α1B/α1A: selectivity for α1A-AR (IC50(α1B-AR)/IC50(α1A-AR)). The procedure: (§2) The subtype selectivity for α1A and α1B was calculated as IC50(α1B-AR)/IC50(α1A-AR) and IC50(α1A-AR)/IC50(α1B-AR) ratio, respectively.
(§3) Intrinsic activity at the α1-AR subtypes studies were performed using the cells expressing mitochondrially-targeted aequorin and one of the human adrenergic receptor α1A or α1B (PerkinElmer, Boston, MA, USA), according to the manufacturer’s instructions. For measurement, frozen cells were thawed and re-suspended in 10 mL of assay buffer containing 5 μM “Coelenterazine h”. This cell suspension was put in a 10 mL Falcon tube, fixed onto a rotating heel, and incubated overnight at rt in the dark (8 rpm; 45° angle). Cells were diluted with Assay Buffer to 5000 cells/20 μL. […] The light emitted was recorded for 20 s. Cells with antagonists were incubated for 15 min at room temperature. […] Luminescence was measured using the multidetection microplate reader (POLARstar Omega, BMG LABTECH, Ortenberg, Germany).
as §1

Series [3] concerns the target T2, human adrenergic receptor α1B (Homo sapiens, UniProt P35368).
T2 sequence (P35368 1-520): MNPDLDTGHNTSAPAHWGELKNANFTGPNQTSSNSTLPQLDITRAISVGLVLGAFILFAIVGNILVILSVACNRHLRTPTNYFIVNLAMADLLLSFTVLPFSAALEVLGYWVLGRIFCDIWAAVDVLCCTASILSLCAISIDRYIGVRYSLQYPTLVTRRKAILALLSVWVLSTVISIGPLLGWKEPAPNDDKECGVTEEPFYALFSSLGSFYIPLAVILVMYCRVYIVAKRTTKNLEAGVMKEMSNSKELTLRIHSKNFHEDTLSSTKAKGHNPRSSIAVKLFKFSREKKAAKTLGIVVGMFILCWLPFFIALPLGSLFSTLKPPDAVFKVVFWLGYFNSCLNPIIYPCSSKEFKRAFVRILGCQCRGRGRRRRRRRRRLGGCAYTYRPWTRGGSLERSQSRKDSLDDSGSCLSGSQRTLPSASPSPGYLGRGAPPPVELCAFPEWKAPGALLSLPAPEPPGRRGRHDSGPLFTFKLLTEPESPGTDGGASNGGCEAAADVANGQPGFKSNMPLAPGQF
Briefly: Intrinsic activity, aequorin luminescence functional assay at α1B-AR. Type of series: cell-based. The conditions noted are these: for α1B-AR Profile: agonist/antagonist profile; for IC50: cells expressing aequorin and human α1B, against phenylephrine, means of three independent experiments in duplicates; for Selectivity Ratio α1A/α1B: selectivity for α1B-AR (IC50(α1A-AR)/IC50(α1B-AR)). The method, then:
as §2, §3, §1

Series [4] has as its system arterial blood pressure of normotensive Wistar rats. Briefly: Influence on blood pressure in normotensive anesthetized rats after i.v. administration. Format: in vivo, rat. The conditions noted are these: for Diastolic blood pressure / Systolic blood pressure: 2.0 mg/kg i.v., mean, n = 6; for effect on systolic and diastolic blood pressure (in words): i.v., normotensive anesthetized rats. The procedure:
In the next step, the hypotensive activity of novel compounds 1–3, 5–9, and 11–14 was determined after i.v. administration to normotensive anesthetized rats. All results are shown in Supplementary Table S1.
The normotensive rats were anesthetized with thiopental (75 mg/kg) by intraperitoneal injection (i.p.). The left carotid artery was cannulated with a polyethylene tub filled with heparin in saline to facilitate pressure measurements using a PowerLab Apparatus (ADInstruments, Sydney, Australia). Blood pressure was measured immediately before administration of the tested compounds or vehicle—time 0 min (initial blood pressure) and 60 min thereafter. Initial blood pressure before administration of the tested chemicals in all experimental groups was similar. The tested compounds were dissolved in a specific vehicle: ethyl alcohol 5% − kolliphor 5% − water 90%. All tested chemicals were administrated intravenously (i.v.) at a constant volume of 1 mL/kg after 20 min of stabilization period. The compounds were tested at a starting dose of 2 mg/kg. If the hypotensive activity was found, the dose was reduced by half. The dosing was continued until the hypotensive effects disappeared. Urapidil was used as a reference compound.
as §1

The mark [5] stands for this setting: 0 min (initial, before administration).

Usually Ki stands for a dissociation constant, usually derived from enzyme kinetics or from competition with a known ligand. What is called IC50 is the midpoint of a concentration-inhibition curve. The low end stands for higher potency, the high end for lower potency. As usually defined, the melting point is the temperature, or range, at which the solid turns liquid. In the case of `COc1ccccc1N1CCN(CCCN2C(=O)N(Cc3ccc(Cl)cc3Cl)C(=O)C2(C)C)CC1.Cl` [Compound 1, 3-(2,4-dichlorobenzyl)-1-(3-(4-(2-methoxyphenyl)piperazin-1-yl)propyl)-5,5-dimethylimidazolidine-2,4-dione hydrochloride], the melting point was 201 to 203 °C. For the same molecule, in series [1], the Ki came to 31 nM. In series [2], the “α1A-AR Profile” value is “Antagonist”; the IC50 is < 100 nM and 90.6 nM; the “Selectivity Ratio α1B/α1A” value worked out at 0.12. Also, in series [3], the “α1B-AR Profile” value is “Antagonist”; the IC50 is < 100 nM and < 11 nM and 10.7 nM; the “Selectivity Ratio α1A/α1B” value is on record as 8.46. In addition, in series [4] (setting [5]), the Diastolic blood pressure stood at 101.0 and the Systolic blood pressure worked out at 133.3. Moreover, in series [4] (5 min), the Diastolic blood pressure stood at 88.3 and the Systolic blood pressure is listed as 120.3. Moreover, in series [4] (10 min), the Diastolic blood pressure is on record as 82.3 and the Systolic blood pressure came out at 113.0. In series [4] (20 min), the Diastolic blood pressure turned out to be 82.2 and the Systolic blood pressure was 112.2. For the same molecule, in series [4] (30 min), the Diastolic blood pressure turned out to be 81.3 and the Systolic blood pressure is listed as 114.2. Moreover, in series [4] (40 min), the Diastolic blood pressure was 80.8 and the Systolic blood pressure amounted to 114.7. In series [4] (50 min), this molecule registered a Diastolic blood pressure of 81.7 and a Systolic blood pressure of 116.0. In series [4] (60 min), this molecule registered a Diastolic blood pressure of 83.3 and a Systolic blood pressure of 117.5. Moreover, in series [4], the “effect on systolic and diastolic blood pressure (in words)” value was “statistically significant reduction”.
As for `CC1(C)C(=O)N(Cc2ccc(Cl)cc2Cl)C(=O)N1CCCN1CCN(c2cccc(Cl)c2Cl)CC1.Cl` [Compound 2, 3-(2,4-dichlorobenzyl)-1-(3-(4-(2,3-dichlorophenyl)piperazin-1-yl)propyl)-5,5-dimethylimidazolidine-2,4-dione hydrochloride], the melting point fell in the range of 185 to 187 °C. Besides, the Ki in series [1] came out at 535 nM. In series [2], the “α1A-AR Profile” value is “Antagonist”, the IC50 amounted to 1730 nM and the “Selectivity Ratio α1B/α1A” value was found to be 0.66. In series [3], the “α1B-AR Profile” value was “Antagonist”, the concentration for half-maximal inhibition (IC50) was found to be 1150 nM and the “Selectivity Ratio α1A/α1B” value is 1.51. In addition, in series [4] (setting [5]), the Diastolic blood pressure was 100.7 and the Systolic blood pressure is recorded as 129.3. Also, in series [4] (5 min), the Diastolic blood pressure was 98.5 and the Systolic blood pressure worked out at 126.7. In addition, in series [4] (10 min), the Diastolic blood pressure was found to be 96.8 and the Systolic blood pressure is 124.2. In addition, in series [4] (20 min), the Diastolic blood pressure amounted to 92.8 and the Systolic blood pressure amounted to 121.7. Besides, in series [4] (30 min), the Diastolic blood pressure was 90.3 and the Systolic blood pressure worked out at 121.2. In series [4] (40 min), this molecule registered a Diastolic blood pressure of 89.3 and a Systolic blood pressure of 120.2. In series [4] (50 min), this molecule registered a Diastolic blood pressure of 88.0 and a Systolic blood pressure of 120.3. Further, in series [4] (60 min), the Diastolic blood pressure is listed as 88.0 and the Systolic blood pressure is 119.3.
With `CC1(C)C(=O)N(Cc2ccc(Cl)cc2Cl)C(=O)N1CCCCCN1CCN(c2ccccc2)CC1.Cl` [Compound 3, 3-(2,4-dichlorobenzyl)-5,5-dimethyl-1-(5-(4-phenylpiperazin-1-yl)pentyl)imidazolidine-2,4-dione hydrochloride], the melting point was in the range of 218 to 220 °C. In series [1], the Ki came to 43 nM. In series [2], the “α1A-AR Profile” value is recorded as “Antagonist”, half-maximal inhibition (IC50) was put at 290 nM and the “Selectivity Ratio α1B/α1A” value came out at 0.01. In addition, in series [3], the “α1B-AR Profile” value was “Antagonist”; the IC50 was < 11 nM and 3.27 nM; the “Selectivity Ratio α1A/α1B” value is given as 88.73. Further, the “selectivity for α1B-AR over α1A-AR” value in series [3] (from IC50 ratio) is listed as ~ 90 fold. In series [4] (setting [5]), the Diastolic blood pressure stood at 93.7 and the Systolic blood pressure was 132.2. In series [4] (5 min), this molecule had a Diastolic blood pressure of 90.3 and a Systolic blood pressure of 123.3. In series [4] (10 min), this molecule gave a Diastolic blood pressure of 81.2 and a Systolic blood pressure of 113.7. In series [4] (20 min), this molecule returned a Diastolic blood pressure of 81.7 and a Systolic blood pressure of 113.0. In series [4] (30 min), this molecule returned a Diastolic blood pressure of 83.2 and a Systolic blood pressure of 116.3. Besides, in series [4] (40 min), the Diastolic blood pressure is 82.7 and the Systolic blood pressure is 116.3. In series [4] (50 min), this molecule gave a Diastolic blood pressure of 84.2 and a Systolic blood pressure of 120.3. Besides, in series [4] (60 min), the Diastolic blood pressure is on record as 83.8 and the Systolic blood pressure is reported as 119.7. In series [4], the “effect on systolic and diastolic blood pressure (in words)” value is “statistically significant reduction”.
In turn, `CC1(C)C(=O)N(Cc2ccc(Cl)cc2Cl)C(=O)N1CC(O)CN1CCN(c2ccc(Cl)c(Cl)c2)CC1.Cl` (centres unmarked) [Compound 10, 3-(2,4-dichlorobenzyl)-1-(3-(4-(3,4-dichlorophenyl)piperazin-1-yl)-2-hydroxypropyl)-5,5-dimethylimidazolidine-2,4-dione hydrochloride] displayed a melting point of 223 to 225 °C. The Ki in series [1] is 778 nM.

Values taken from publication PMC10706087, “The Subtype Selectivity in Search of Potent Hypotensive Agents among 5,5-Dimethylhydantoin Derived α1-Adrenoceptors Antagonists” (International Journal of Molecular Sciences, 2023).
